Reference: PubChem BioAssay (NCI)
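Where inhibition never reached the appropriate level, the endpoint shown equals the highest concentration tested. Otherwise, values were interpolated linearly from a five-concentration, 48-hour dose response in 96-well plates. GI50: concentration for 50% inhibition of growth. TGI is the concentration that stops growth completely.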

Key:
Experiment in all cases: NCI-60 cell line screen, 48 h
[1] = tested on: RXF 393 renal
[2] = tested on: HCC-2998 colon
[3] = tested on: SK-MEL-28 melanoma
[4] = tested on: K-562 leukemia
[5] = tested on: KM12 colon
[6] = tested on: HS 578T breast
[7] = tested on: TK-10 renal
[8] = tested on: SK-OV-3 ovarian
[9] = tested on: HOP-62 NSCLC
[10] = tested on: OVCAR-5 ovarian
[11] = tested on: HOP-92 NSCLC
[12] = tested on: SK-MEL-2 melanoma
[13] = tested on: SW-620 colon
[14] = tested on: COLO 205 colon
[15] = tested on: BT-549 breast
[16] = tested on: NCI/ADR-RES ovarian
[17] = tested on: 786-0 renal
[18] = tested on: M14 melanoma
[19] = tested on: SR leukemia
[20] = tested on: MALME-3M melanoma
[21] = tested on: NCI-H460 lung
[22] = tested on: HT29 colon
[23] = tested on: OVCAR-8 ovarian
[24] = tested on: IGROV1 ovarian
[25] = tested on: SF-295 CNS
[26] = tested on: U251 CNS
[27] = tested on: HCT-15 colon
[28] = tested on: SF-539 CNS
[29] = tested on: UACC-257 melanoma
[30] = tested on: DU-145 prostate
[31] = tested on: EKVX NSCLC
[32] = tested on: SF-268 CNS
[33] = tested on: SK-MEL-5 melanoma
[34] = tested on: RPMI-8226 leukemia
[35] = tested on: NCI-H23 lung
[36] = tested on: LOX IMVI melanoma
[37] = tested on: SN12C renal
[38] = tested on: A549 NSCLC
[39] = tested on: MDA-MB-231 breast
[40] = tested on: NCI-H226 lung
[41] = tested on: MOLT-4 leukemia
[42] = tested on: SNB-19 CNS
[43] = tested on: ACHN renal
[44] = tested on: OVCAR-4 ovarian
[45] = tested on: CCRF-CEM leukemia
[46] = tested on: PC-3 prostate
[47] = tested on: UO-31 renal

In the case of `COc1cc(C(C)c2ccc3c(ccn3C)c2)cc(OC)c1OC` (centres undefined), the GI50 [1] is reported as less than 10 nM, the TGI [1] is reported as greater than 100 µM and the GI50 [2] is reported as 27.6 nM. For the same compound, the TGI [2] was greater than 100 µM, the GI50 [3] was 8.09 µM and the TGI [3] was greater than 100 µM. For the same compound, the GI50 [4] was less than 10 nM, the TGI [4] was greater than 100 µM and the GI50 [5] was less than 10 nM. It also gave a TGI [5] of 60.2 µM, a GI50 [6] of 14.8 nM and a TGI [6] greater than 100 µM. For the same compound, the GI50 [7] was 16.5 µM, the TGI [7] was 92.6 µM and the GI50 [8] was less than 10 nM. For the same compound, the TGI [8] was 60.7 µM, the GI50 [9] was 38.5 nM and the TGI [9] was greater than 100 µM. For the same compound, the GI50 [10] was 55.9 nM, the TGI [10] was greater than 100 µM and the GI50 [11] was 25.1 nM. The TGI [11] was 45.4 µM, the GI50 [12] was 98.4 nM and the TGI [12] was 95.8 µM. For the same compound, the GI50 [13] was less than 10 nM, the TGI [13] was greater than 100 µM and the GI50 [14] was less than 10 nM. The TGI [14] was 46.1 nM, the GI50 [15] was 23.1 nM and the TGI [15] was 19.3 µM. For the same compound, the GI50 [16] was less than 10 nM, the TGI [16] was greater than 100 µM and the GI50 [17] was 28.8 nM. For the same compound, the TGI [17] was 26.7 µM, the GI50 [18] was less than 10 nM and the TGI [18] was 22 µM. For the same compound, the GI50 [19] was less than 10 nM, the TGI [19] was greater than 100 µM and the GI50 [20] was 11.6 µM. It also gave a TGI [20] of 63.3 µM, a GI50 [21] of 11.7 nM and a TGI [21] greater than 100 µM. For the same compound, the GI50 [22] was less than 10 nM, the TGI [22] was 14.2 µM and the GI50 [23] was 36.3 nM. The TGI [23] was 38.5 µM, the GI50 [24] was 29.1 nM and the TGI [24] was greater than 100 µM. It also gave a GI50 [25] of less than 10 nM, a TGI [25] of 32.5 µM and a GI50 [26] of less than 10 nM. It also gave a TGI [26] of 39 µM, a GI50 [27] of 10.6 nM and a TGI [27] greater than 100 µM. For the same compound, the GI50 [28] was less than 10 nM, the TGI [28] was 15.2 µM and the GI50 [29] was 19.4 µM. It also gave a TGI [29] of 77.6 µM, a GI50 [30] of 34.3 nM and a TGI [30] greater than 100 µM. It also gave a GI50 [31] of 67.4 nM, a TGI [31] greater than 100 µM and a GI50 [32] of 39.3 nM. It also gave a TGI [32] greater than 100 µM, a GI50 [33] of less than 10 nM and a TGI [33] of 391 nM. It also gave a GI50 [34] of 36.2 nM, a TGI [34] of 22.6 µM and a GI50 [35] of 26.8 nM. It also gave a TGI [35] greater than 100 µM, a GI50 [36] of 20.7 nM and a TGI [36] greater than 100 µM. For the same compound, the GI50 [37] was 67.1 nM, the TGI [37] was greater than 100 µM and the GI50 [38] was 23.3 nM. The TGI [38] was greater than 100 µM, the GI50 [39] was 55.1 nM and the TGI [39] was 34.8 µM. The GI50 [40] was 10.9 µM, the TGI [40] was 57.3 µM and the GI50 [41] was 44.9 nM. It also gave a TGI [41] greater than 100 µM, a GI50 [42] of 40.5 nM and a TGI [42] greater than 100 µM. The GI50 [43] was 17.2 nM, the TGI [43] was greater than 100 µM and the GI50 [44] was 414 nM. For the same compound, the TGI [44] was greater than 100 µM, the GI50 [45] was 30.7 nM and the TGI [45] was greater than 100 µM. It also gave a GI50 [46] of 17.1 nM, a TGI [46] greater than 100 µM and a GI50 [47] of 189 nM. It also gave a TGI [47] of 62.2 µM.
